Data set [1] in a line: ABTS radical cation decolorization assay. The settings on record: 10 min incubation, pH 7.4, λ = 734 nm. The method, then: The ABTS^•+ (2,2′-azinobis-(3-ethylbenzothiazoline-6-sulfonic acid) decolorization assay, based on the method of Re et al., was performed in the concentration range of 1 to 25 µM according to protocols previously reported by our group. The reagent was prepared in a 0.1 M potassium phosphate buffer (pH 7.4) and activated overnight with MnO2 [89]. Prior to use, the stability of the ABTS^•+ reagent was verified by checking its absorbance at λ = 734 nm over one hour, ensuring a consistent absorption of around 0.7. The mixtures were incubated for 10 min in the dark at room temperature. The absorbance of the samples is given by the remaining unreacted reagent radical, and it is inversely proportional to the amount of ABTS^•+ neutralized. The ABTS^•+ scavenging activity of compounds was calculated using Equation (2).(2) ABTS^•^+ scavenging (%)=control absorbance−sample absorbance/control absorbance×100

Data set [2] can be described thus: Total Antioxidant Capacity (TAC) assay. The following applies: molar equivalents of reference compound. How it is done: The results of the evaluation of the electron ability transfer of the tested compound were expressed as molar equivalents of the reference compound per one mol of the tested compound using the formula: % of control activity=sample absorbance/reference absorbance×100 The Total Antioxidant Capacity (TAC) assay operates on the principle of reducing molybdenum (VI) to molybdenum (V) by the antioxidants being assessed, resulting in the formation of a blue-green complex. This assay was performed following the methodology detailed in our previous publication, which was based on initial reports from the literature. […] These were then incubated in a water bath at 95 °C for 90 min. After cooling to room temperature, 1 mL of each solution was diluted with 1 mL of water. The absorbance of the solutions was subsequently measured at λ = 695 nm.

Data set [3] can be described thus: Cell viability (resazurin) on A549. The settings on record: human, A549 cells; for IC50 at 24 h: A549, 24 h, read-out: 24 h Exposure IC50 (cytotoxicity); for IC50 at 48 h: A549, 48 h, read-out: 48 h Exposure IC50 (cytotoxicity). It is filed as cell-based. From the text: (§1) The ARPE-19 cell line was purchased from CLS Cell Lines Service GmbH (Eppelheim, Germany) and cultured in Dulbecco’s modified Eagle’s medium/F-12 (HAM) 1:1 (Biological Industries, Beit, Israel). The medium was supplemented with 10% fetal bovine serum (FBS) (Thermo Fisher Scientific, Waltham, MA, USA) and 1% penicillin-streptomycin (Biosera, Cholet, France). The cancerous cell line A549 was purchased from ATCC (Manassas, VA, USA) and cultivated in high-glucose Dulbecco’s modified Eagle’s medium (DMEM 4.5 g/L). The normal BJ cell line was also purchased from ATCC (Manassas, VA, USA) and was cultivated in low-glucose Dulbecco’s modified Eagle’s medium (DMEM 1 g/L). The media was supplemented in both cases with 10% FBS. Cells were cultured in T75 flasks and incubated at 37 °C in a humidified incubator with 5% CO2 supplementation. For maintenance, the media was changed every 2–3 days, and when the confluence of the flask reached approximately 85%, the cells were either subcultured or further used in the experiments.
(§2) ARPE-19 cells were seeded at a density of 2 × 10^4 cells/well and 1 × 10^4 cells/well (suspended in 100 µL) in 96-well plates for 24 h and 48 h, respectively. For the BJ cells, the seeding density was 0.5 × 10^4 cells/well and 0.3 × 10^4 cells/well for 24 h and 48 h, respectively, and for the A549 cells, 1.5 × 10^4 cells/well for 24 h and 0.75 × 10^4 cells/well for 48 h. As cells have different sizes and volumes, the different seeding densities were selected to reach a confluency of 80–90% by the end of the experiments. Cells were further exposed to the synthesized compounds for 24/48 h at concentrations ranging from 12.5 to 500 µM. After the incubation period, the exposure media was removed, the cells were washed with PBS, and further incubated with a 200 µM resazurin solution for 3 h as described in our previous report. The conversion of resazurin to the fluorescent resorufin compound by viable cells was measured at λexcitation = 550; λemission = 600, using SpectraMax iD3 (Molecular Devices, San Jose, CA, USA). The experiments were conducted in biological triplicate, each with a minimum of 3 technical replicates. The measured viability was expressed as relative values to the control (cells exposed only to the vehicle–culture medium containing 0.4% DMSO).
For orientation: Resazurin is reduced to fluorescent resorufin, in cell work by metabolically active cells.

The nature of data set [4]: DPPH radical scavenging assay. The following applies: for IC50: 30 min incubation, λ = 517 nm. The method, then: The DPPH^• radical scavenging assay is based on transferring a hydrogen atom from the tested compounds to the violet stable free radical DPPH^• (2,2-diphenyl-1-picrylhydrazyl radical), converting it into a yellow compound. The assay was conducted using tested compounds and references in concentrations ranging from 2 to 50 µM, according to our adaptation of the protocol of Brand-Williams et al.. The absorbance of the samples is given by the remaining unreacted reagent radical, and it is inversely proportional to the amount of DPPH^• neutralized. The absorbance of the samples was measured at λ = 517 nm after 30 min of incubation in the dark at room temperature. The DPPH^• radical scavenging activity of the compounds was calculated using Equation (1):(1) DPPH^• scavenging (%)=control absorbance−sample absorbance/control absorbance×100
Background: Loss of DPPH colour is used to gauge radical scavenging.

Data set [5] can be described thus: Cell viability (resazurin) on BJ. It is filed as cell-based. The settings on record: human, BJ cells; for IC50 at 24 h: read-out: 24 h Exposure IC50 (cytotoxicity); for IC50 at 48 h: read-out: 48 h Exposure IC50 (cytotoxicity).
Excerpt: as §1, §2

Molecules are shown by their SMILES.

A word on the IC50: it is the concentration needed to halve the response being measured.

As to `C/C=C/C=N/Nc1nc(-c2ccc(O)c(O)c2)cs1.Cl` [Compound 5a, 4-(2-(2-((1E,2E)-but-2-en-1-ylidene)hydrazineyl)thiazol-4-yl)benzene-1,2-diol hydrochloride], the IC50 in data set [1] was determined as 4.67 µM; in data set [4] it was 9.8 µM. Also, the “TAC Eq Ascorbic Acid” value in data set [2] is on record as 2.82 Eq Ascorbic Acid. The IC50 at 24 h was 147 µM in data set [3] and 144 µM in data set [5]. The IC50 at 48 h in data set [3] came to 109 µM; in data set [5], 162 µM. The “fold higher activity than the reference compounds in the DPPH^• scavenging assay” value in data set [4] (compared to ascorbic acid and Trolox) is “up to 5 fold”.

As for `CC1=C(/C=C/C(C)=N/Nc2nc(-c3ccc(O)c(O)c3)cs2)C(C)(C)CCC1.Cl` [Compound 5b, 4-(2-(2-((2E,3E)-4-(2,6,6-trimethylcyclohex-1-en-1-yl)but-3-en-2-ylidene) hydrazineyl)thiazol-4-yl)benzene-1,2-diol hydrochloride], the IC50 in data set [1] was 5.03 µM; in data set [4], 18.4 µM. Moreover, the “TAC Eq Ascorbic Acid” value in data set [2] is 2.56 Eq Ascorbic Acid. Further, the IC50 at 24 h in data set [3] stood at 167 µM; in data set [5], 141 µM. In addition, the IC50 at 48 h in data set [3] worked out at 39.6 µM; in data set [5], 152 µM.

The values above are taken from article PMC12189671, “Antioxidant Activity and Cytotoxicity Evaluation of New Catechol Hydrazinyl-Thiazole Derivatives as Potential Protectors in Retinal Degenerative Processes” (Antioxidants, 2025).
